Test results published in patent publication US10370333B2 (Sanford Burnham Prebys Medical Discovery Institute, priority 2012, dated 2019).

Biological target: TNAP (Homo sapiens (Human), UniProt P05186)
Assay: TNAP (PPi) inhibition assay, pyrophosphate as substrate
Type: biochemical
Protocol: Expression plasmids containing a secreted epitope-tagged TNAP were transfected into COS-1 cells for transient expression. The medium was replaced with Opti-MEM 24 h later and serum-free media containing secreted proteins was collected 60 hours after electroporation. The medium was dialyzed against TBS containing 1 mM MgCl2 and […] (to remove phosphate) and filtered through a […] cellulose acetate filter.
To determine the inhibition selectivity for inhibitor candidates, human TNAP, PLAP or IAP were added to microtiter plates followed by addition of the substrate pNPP (0.5 mM) and activity was measured in 1 M DEA-HCl buffer, pH 9.8 or in 1 M Tris-HCl buffer, pH 7.5, containing 1 mM MgCl2 and 20 μM ZnCl2, in the presence of potential inhibitors (0-30 μM). TNAP, PLAP and IAP activities were adjusted to an approximate λA405 nm, equivalent to 1, measured after 30 min. Residual AP activity in the presence of inhibitors was expressed as percentage of the control activity. To investigate the mechanism of inhibition, double reciprocal plots of enzyme activity (expressed as mA405 nm min−1) vs. substrate concentration were constructed, in the presence of various concentrations of added inhibitors (0-30 μM). The y-axis intercepts of the 1/v vs. 1/[S] plots, were then plotted vs. [I] to graphically extract Ki values as the x-intercept in this plot. […] Inhibitors were further tested and sorted based on their kinetic properties at pH 7.4 using PPi, the relevant natural substrate of TNAP. […] Amounts of released phosphate were measured using the Biomol Green Reagent (Biomol Research Laboratories, Inc., Plymouth Meeting, Pa.).

IC50 [nM]	SMILES
< 100	COc1ccc(OC)c(S(=O)(=O)Nc2cncc(-c3ccc(F)cc3)c2)c1 [Example III-16, N-[5-(4-Fluoro-phenyl)-pyridin-3-yl]-2,5-dimethoxy-benzenesulfonamide]
< 100	COc1ccc(Br)cc1S(=O)(=O)Nc1cncc(-c2ccc(F)cc2)c1 [Example III-17, 5-Bromo-N-[5-(4-fluoro-phenyl)-pyridin-3-yl]-2-methoxy-benzenesulfonamide]
< 100	COc1ccc(Cl)cc1S(=O)(=O)Nc1cncc(-c2ccc(F)cc2)c1 [Example III-18, 5-Chloro-N-[5-(4-fluoro-phenyl)-pyridin-3-yl]-2-methoxy-benzenesulfonamide]
< 100	COc1ccc(OC)c(S(=O)(=O)Nc2cncc(-c3ccccc3)c2)c1 [Example III-25, N-(5-Phenyl-pyridin-3-yl)-2,5-Dimethoxy-benzenesulfonamide]
< 100	COc1ccc(Br)cc1S(=O)(=O)Nc1cncc(-c2ccccc2)c1 [Example III-26, 5-Bromo-2-methoxy-N-(5-phenyl-pyridin-3-yl)-benzenesulfonamide]
< 100	COc1ccc(Cl)cc1S(=O)(=O)Nc1cncc(-c2ccccc2)c1 [Example III-27, 5-Chloro-2-methoxy-N-(5-phenyl-pyridin-3-yl)-benzenesulfonamide]
< 100	COC(=O)c1ccc(-c2cncc(NS(=O)(=O)c3cc(OC)ccc3OC)c2)cc1 [Example III-28, 4-[5-(2,5-Dimethoxy-benzenesulfonylamino)-pyridin-3-yl]-benzoic Acid methyl ester]
< 100	COC(=O)c1ccc(-c2cncc(NS(=O)(=O)c3cc(Br)ccc3OC)c2)cc1 [Example III-29, 4-[5-(5-Bromo-2-methoxy-benzenesulfonylamino)-pyridin-3-yl]-benzoic Acid Methyl Ester]
< 100	COC(=O)c1ccc(-c2cncc(NS(=O)(=O)c3cc(Cl)ccc3OC)c2)cc1 [Example III-30, 4-[5-(5-Chloro-2-methoxy-benzenesulfonylamino)-pyridin-3-yl]-benzoic Acid Methyl Ester]
< 100	COc1ccc(OC)c(S(=O)(=O)Nc2cncc(-c3ccc(C#N)cc3)c2)c1 [Example III-31, N-(5-(4-Cyanophenyl)pyridin-3-yl)-2,5-dimethoxybenzenesulfonamide]
< 100	COc1ccc(Br)cc1S(=O)(=O)Nc1cncc(-c2ccc(C#N)cc2)c1 [Example III-32, 5-Bromo-N-(5-(4-cyanophenyl)pyridin-3-yl)-2-methoxybenzenesulfonamide]
< 100	COc1ccc(Cl)cc1S(=O)(=O)Nc1cncc(-c2ccc(C#N)cc2)c1 [Example III-33, 5-Chloro-N-(5-(4-cyanophenyl)pyridin-3-yl)-2-methoxybenzenesulfonamide]
100 to 1000	COc1ccc(OC)c(S(=O)(=O)Nc2cncc(-c3ccccc3OC)c2)c1 [Example III-34, 2,5-Dimethoxy-N-[5-(2-methoxy-phenyl)-pyridin-3-yl]-benzenesulfonamide]
< 100	COc1ccccc1-c1cncc(NS(=O)(=O)c2cc(Br)ccc2OC)c1 [Example III-35, 5-Bromo-2-methoxy-N-[5-(2-methoxy-phenyl)-pyridin-3-yl]-benzenesulfonamide]
< 100	COc1ccccc1-c1cncc(NS(=O)(=O)c2cc(Cl)ccc2OC)c1 [Example III-36, 5-Chloro-2-methoxy-N-[5-(2-methoxy-phenyl)-pyridin-3-yl]-benzenesulfonamide]
< 100	COc1ccc(OC)c(S(=O)(=O)Nc2cncc(-c3ccccc3Cl)c2)c1 [Example III-40, N-[5-(2-Chloro-phenyl)-pyridin-3-yl]-2,5-dimethoxy-benzenesulfonamide]
< 100	COc1ccc(Br)cc1S(=O)(=O)Nc1cncc(-c2ccccc2Cl)c1 [Example III-41, 5-Bromo-N-[5-(2-chloro-phenyl)-pyridin-3-yl]-2-methoxy-benzenesulfonamide]
< 100	COc1ccc(Cl)cc1S(=O)(=O)Nc1cncc(-c2ccccc2Cl)c1 [Example III-42, 5-Chloro-N-[5-(2-chloro-phenyl)-pyridin-3-yl]-2-methoxy-benzenesulfonamide]
100 to 1000	COc1ccc(OC)c(S(=O)(=O)Nc2cncc(-c3ccccc3C(F)(F)F)c2)c1 [Example III-43, 2,5-Dimethoxy-N-[5-(2-trifluoromethyl-phenyl)-pyridin-3-yl]-benzenesulfonamide]
100 to 1000	COc1ccc(Br)cc1S(=O)(=O)Nc1cncc(-c2ccccc2C(F)(F)F)c1 [Example III-44, 5-Bromo-2-methoxy-N-[5-(2-trifluoromethyl-phenyl)-pyridin-3-yl]-benzenesulfonamide]
< 100	COc1cccc(-c2cncc(NS(=O)(=O)c3cc(OC)ccc3OC)c2)c1 [Example III-46, 2,5-Dimethoxy-N-[5-(3-methoxy-phenyl)-pyridin-3-yl]-benzenesulfonamide]
< 100	COc1cccc(-c2cncc(NS(=O)(=O)c3cc(Br)ccc3OC)c2)c1 [Example III-47, 5-Bromo-2-methoxy-N-[5-(3-methoxy-phenyl)-pyridin-3-yl]-benzenesulfonamide]
< 100	COc1cccc(-c2cncc(NS(=O)(=O)c3cc(Cl)ccc3OC)c2)c1 [Example III-48, 5-Chloro-2-methoxy-N-[5-(3-methoxy-phenyl)-pyridin-3-yl]-benzenesulfonamide]
100 to 1000	COc1ccc(OC)c(S(=O)(=O)Nc2cncc(-c3cccc(C)c3)c2)c1 [Example III-49, 2,5-Dimethoxy-N-(5-m-tolyl-pyridin-3-yl)-benzenesulfonamide]
100 to 1000	COc1ccc(Br)cc1S(=O)(=O)Nc1cncc(-c2cccc(C)c2)c1 [Example III-50, 5-Bromo-2-methoxy-N-(5-m-tolyl-pyridin-3-yl)-benzenesulfonamide]
100 to 1000	COc1ccc(OC)c(S(=O)(=O)Nc2cncc(-c3cccc(Cl)c3)c2)c1 [Example III-52, N-[5-(3-Chloro-phenyl)-pyridin-3-yl]-2,5-dimethoxy-benzenesulfonamide]
100 to 1000	COc1ccc(Br)cc1S(=O)(=O)Nc1cncc(-c2cccc(Cl)c2)c1 [Example III-53, 5-Bromo-N-[5-(3-chloro-phenyl)-pyridin-3-yl]-2-methoxy-benzenesulfonamide]

SMILES	IC50 [nM]
COc1ccc(OC)c(S(=O)(=O)Nc2cncc(-c3ccc(C)cc3)c2)c1 [Example III-10, 2,5-Dimethoxy-N-(5-p-tolyl-pyridin-3-yl)-benzenesulfonamide]	100 to 1000
COc1ccc(Br)cc1S(=O)(=O)Nc1cncc(-c2ccc(C)cc2)c1 [Example III-11, 5-Bromo-2-methoxy-N-(5-p-tolyl-pyridin-3-yl)-benzenesulfonamide]	100 to 1000
COc1ccc(OC)c(S(=O)(=O)Nc2cncc(-c3ccc(C(F)(F)F)cc3)c2)c1 [Example III-13, 2,5-Dimethoxy-N-(5-(4-(trifluoromethyl)phenyl)pyridin-3-yl)benzenesulfonamide]	100 to 1000
COc1ccc(Br)cc1S(=O)(=O)Nc1cncc(-c2ccc(C(F)(F)F)cc2)c1 [Example III-14, 5-Bromo-2-methoxy-N-(5-(4-(trifluoromethyl)phenyl)pyridin-3-yl)benzenesulfonamide]	100 to 1000
COc1ccc(Cl)cc1S(=O)(=O)Nc1cncc(-c2ccc(C(F)(F)F)cc2)c1 [Example III-15, 5-Chloro-2-methoxy-N-(5-(4-(trifluoromethyl)phenyl)pyridin-3-yl)benzenesulfonamide]	100 to 1000
COc1ccc(OC)c(S(=O)(=O)Nc2cncc(-c3ccc(Cl)cc3)c2)c1 [Example III-19, N-[5-(4-Chloro-phenyl)-pyridin-3-yl]-2,5-dimethoxy-benzenesulfonamide]	100 to 1000
COc1ccc(Br)cc1S(=O)(=O)Nc1cncc(-c2ccc(Cl)cc2)c1 [Example III-20, 5-Bromo-N-[5-(4-chloro-phenyl)-pyridin-3-yl]-2-methoxy-benzenesulfonamide]	100 to 1000
COc1ccc(OC)c(S(=O)(=O)Nc2cncc(-c3ccc(Br)cc3)c2)c1 [Example III-22, N-[5-(4-Bromo-phenyl)-pyridin-3-yl]-2,5-dimethoxy-benzenesulfonamide]	100 to 1000
COc1ccc(Br)cc1S(=O)(=O)Nc1cncc(-c2ccc(Br)cc2)c1 [Example III-23, 5-Bromo-N-[5-(4-bromo-phenyl)-pyridin-3-yl]-2-methoxy-benzenesulfonamide]	100 to 1000
COc1ccc(Cl)cc1S(=O)(=O)Nc1cncc(-c2ccc(Br)cc2)c1 [Example III-24, N-[5-(4-Bromo-phenyl)-pyridin-3-yl]-5-chloro-2-methoxy-benzenesulfonamide]	100 to 1000
COc1ccc(OC)c(S(=O)(=O)Nc2cncc(-c3ccccc3C)c2)c1 [Example III-37, 2,5-Dimethoxy-N-(5-(o-tolyl)pyridin-3-yl)benzenesulfonamide]	100 to 1000
COc1ccc(Br)cc1S(=O)(=O)Nc1cncc(-c2ccccc2C)c1 [Example III-38, 5-Bromo-2-methoxy-N-(5-(o-tolyl)pyridin-3-yl)benzenesulfonamide]	100 to 1000
